In brackets after ≈: the same amount, converted by molar mass. Where two headings read alike, the source gives them in different places.
Experiments:
[1] = Solubility in water of the prepared product
[2] = test system: rats; assay: Antipyretic activity, E. coli suspension as pyrogen, body temperature; type: in vivo; settings: for body temperature t=0 min / body temperature t=90 min / body temperature t=180 min. / body temperature t=270 min.: in °C (unit assumed)
Method: Antipyretic activity: Rats received a sterilized E. coli suspension as a pyrogen. 56 rats were divided into 7 groups. The control group is group A. 2 hours later, Aspirin (ASA, B1 for 100mg/kg and B2 for 150mg/kg) and diethylaminoethyl acetylsalicylate.AcOH (DEAE-ASA, C1 for 100mg/kg and C2 for 150 mg) were administered orally and diethylaminoethyl acetylsalicylate.AcOH (DEAE-ASA, D1 for 100 mg and D2 for 150 mg/kg) were administered transdermally. The body temperature of rats was taken at 90 min. intervals before and after the administration of the test compounds.

[3] = Half-life in whole human blood
Source text: (§3) To determine how much the pro-drugs of acetylsalicylic acid were changed back to the drug itself or diethylaminoethyl salicylate, we diluted whole human blood 20 times with a pH 7.4 phosphate buffer (0.2M).

[4] = physchem; settings: pH 7, aqueous buffer
[5] = test system: mice; assay: Analgetic activity, acetic acid writhing test; type: in vivo; settings: for inhibition at 50 mg/kg / inhibition at 100 mg/kg: Mus musculus, po, read-out: % (rate of writhings inhibition)
Method: The number of writhings that occurred when mice were administered an acetic acid solution intraperitoneally were counted, and the rate of inhibition based on the control group was calculated. 42 mice were divided into 7 groups (6 mice each). Aspirin (ASA, 50 mg/kg and 100 g) was administered to groups B1 and B2 of mice and diethylaminoethyl acetylsalicylate.AcOH (DEAE-ASA, 50 mg and 100 mg/kg) was administered orally to groups C1 and C2. Diethylaminoethyl acetylsalicylate.AcOH (DEAE-ASA, 50 mg and 100 mg/kg) was administered transdermally to groups D1 and D2. The A group is the control group. The test compounds were administered to the mice 30 minutes before the acetic acid solution was administered.

[6] = hairless, mouse, in vivo
[7] = cited from earlier work
[8] = human, 20 % (suspension in the donor), pH 7.4
[9] = test system: rats; settings: rat, in vivo, po, 100 mg/kg/day, 21 days
[10] = Acute toxicity, oral LD50; type: in vivo; settings: rat, in vivo, rats, read-out: LD50 orally in rats
Source text: (§1) The acute toxicity of the pro-drugs were investigated.

[11] = In vitro penetration through human skin, modified Franz cells, HPLC
[12] = Solubility in pH 7 phosphate buffer; settings: pH 7, aqueous buffer
[13] = In vivo penetration through the skin of intact hairless mice, plasma levels of salicylic acid by HPLC
[14] = Conversion of pro-drug in whole human blood diluted 20 times with pH 7.4 phosphate buffer, HPLC; settings: whole human blood diluted 20 times with pH 7.4 phosphate buffer (0.2M)
Source text: as §3

[15] = test system: mice; assay: Analgetic activity, prolongation of pain threshold of mouse tail (D'Amour-Smith Method); type: in vivo; settings: versus 200mg/kg aspirin, Figure 3
Method: Analgetic activity: The prolongation time of pain the threshold of a mouse tail was determined in accordance with the D'Amour-Smith Method (J. Pharmacol. Exp. Ther., 72, 74(1941)).
(§2) • Figure 1: Cumulative amounts of acetylsalicylic acid (ASA), ethyl acetylsalicylate(E-ASA), and diethylaminoethyl acetylsalicylate.AcOH(DEAE-ASA) crossing isolated human skin tissue in Franz cells (n=5). […] In each case, the vehicle was pH 7.4 phosphate buffer (0.2 M). • Figure 2: Total plasma levels of salicylic acid (SA) after topical application of 300 mg of acetylsalicylic acid (ASA) or diethylaminoethyl acetylsalicylate.AcOH (DEAE-ASA) to the backs of hairless mice (n=5). • Figure 3. […] A is the control line. • Figure 4. […] A is the control line.

[16] = test system: rats; assay: Anti-inflammatory activity, carrageenin hind paw swelling; type: in vivo; settings: 50mg/kg, oral administration and transdermal administration, Figure 4
Method: Anti-inflammatory activity: 50 mg/kg of diethylaminoethyl acetylsalicylate.AcOH was administered orally or transdermally to rats and 50 mg/kg of aspirin was administered orally. 60 minutes later, a carrageenin solution was administered subcutaneously to the foot pads of the rats. The volume of the hind paw was measured at every hour after the administration of the carrageenin, and the rate of increase in the volume of the paw was calculated and designated as the rate of swelling(%).
as §2

[17] = test system: rats; assay: Gastroduodenal bleeding (fecal blood) after 21 days of oral dosing; settings: 100 mg/kg per day orally for 21 days
[18] = physchem
[19] = test system: rats; assay: Acute toxicity, oral LD50; type: in vivo; settings: unit printed as g
Source text: as §1

[20] = 50 mg/kg, groups B1 (ASA) and C1 (DEAE-ASA orally), 30 minutes before acetic acid
[21] = 100 mg/kg, groups B2 (ASA) and C2 (DEAE-ASA orally), 30 minutes before acetic acid
[22] = 50 mg/kg, groups B1 (ASA) and C1 (DEAE-ASA orally)
[23] = 100 mg/kg, groups B2 (ASA) and C2 (DEAE-ASA orally)
[24] = 50 mg/kg transdermally, group D1
[25] = 100 mg/kg transdermally, group D2

Molecule: CCN(CC)CCCNC(=O)c1ccccc1OC(C)=O [N-diethylaminopropyl acetylsalicylamide.AcOH]
- solubility [1]: 280 mg/mL (≈ 958 mM)

Molecule: CC(=O)Oc1ccccc1C(=O)NCCN(C)C [N-dimethylaminoethyl acetylsalicylamide.AcOH]
- solubility [1]: 350 mg/mL (≈ 1400 mM)

Molecule: CC(=O)Oc1ccccc1C(=O)SCCN(C)C [S-dimethylaminoethyl acetylthiosalicylate.AcOH]
- solubility [1]: 320 mg/mL (≈ 1200 mM)

Molecule: CC(=O)Oc1ccccc1C(=O)O [acetylsalicylic acid, reference compound]
- body temperature t=0 min ([2]; 100mg/kg orally): 37.22±0.05
- body temperature t=90 min ([2]; 100mg/kg orally): 36.80±0.05
- body temperature t=180 min. ([2]; 100mg/kg orally): 36.85±0.05
- body temperature t=270 min. ([2]; 100mg/kg orally): 36.81±0.05
- body temperature t=0 min ([2]; 150mg/kg orally): 37.30±0.06
- body temperature t=90 min ([2]; 150mg/kg orally): 36.50±0.05
- body temperature t=180 min. ([2]; 150mg/kg orally): 36.59±0.05
- body temperature t=270 min. ([2]; 150mg/kg orally): 36.55±0.05
- half-life [3]: 15 min
- solubility [4]: 0.01 mg/mL (≈ 0.0555 mM)
- No. of Writhings [5, 20]: 18.2
- No. of Writhings [5, 21]: 13.2
- inhibition at 50 mg/kg [5, 22]: 45%
- inhibition at 100 mg/kg [5, 23]: 60%
- time to peak levels of salicylic acid in plasma after application of the donor systems [6]: ~20 min
- half live in plasma [7]: ~15 min
- Apparent flux values [8]: 0.25 mg/cm^2/h
- average fecal blood [9]: 5 mg of fecal blood per gram of feces

Molecule: CCN(CC)CCOC(=O)c1ccccc1OC(C)=O [diethylaminoethyl acetylsalicylate.AcOH]
- antipyretic activity compared with aspirin ([2]; 100 mg/kg dose, summary of Table 2): some better than aspirin
- body temperature t=0 min ([2]; 100mg/kg orally): 37.25±0.09
- body temperature t=90 min ([2]; 100mg/kg orally): 36.40±0.15
- body temperature t=180 min. ([2]; 100mg/kg orally): 36.50±0.09
- body temperature t=270 min. ([2]; 100mg/kg orally): 36.40±0.15
- body temperature t=0 min ([2]; 100mg/kg transdermally): 37.19±0.07
- body temperature t=90 min ([2]; 100mg/kg transdermally): 36.40±0.05
- body temperature t=180 min. ([2]; 100mg/kg transdermally): 36.38±0.05
- body temperature t=270 min. ([2]; 100mg/kg transdermally): 36.40±0.15
- body temperature t=0 min ([2]; 150mg/kg orally): 37.18±0.07
- body temperature t=90 min ([2]; 150mg/kg orally): 36.30±0.15
- body temperature t=180 min. ([2]; 150mg/kg orally): 36.28±0.07
- body temperature t=270 min. ([2]; 150mg/kg orally): 36.20±0.09
- body temperature t=0 min ([2]; 150mg/kg transdermally): 37.33±0.05
- body temperature t=90 min ([2]; 150mg/kg transdermally): 36.27±0.15
- body temperature t=180 min. ([2]; 150mg/kg transdermally): 36.26±0.07
- body temperature t=270 min. ([2]; 150mg/kg transdermally): 36.22±0.08
- antipyretic activity, transdermal versus oral administration ([2]; summary of Table 2): better than oral administration
- LD50 [10]: 2300 mg/kg
- Apparent flux values ([11]; isolated human skin, Franz cells, donor 20% suspension or 20% solution in pH 7.4 phosphate buffer (0.2M)): 100 mg/cm^2/h
- diffuses through human skin times faster than acetylsalicylic acid itself ([11]; ratio versus acetylsalicylic acid): ~400 times
- diffuses through human skin times faster than ethyl acetylsalicylate ([11]; ratio versus ethyl acetylsalicylate): ~100 times
- half-life ([3]; blood): ~4 min
- solubility [12]: > 300 mg/mL
- % (rate of writhings inhibition) [5, 24]: 56%
- No. of Writhings [5, 24]: 14.5
- No. of Writhings [5, 20]: 15.4
- % (rate of writhings inhibition) [5, 25]: 70%
- No. of Writhings [5, 25]: 10.1
- No. of Writhings [5, 21]: 11
- inhibition at 50 mg/kg [5, 22]: 54%
- inhibition at 100 mg/kg [5, 23]: 67%
- analgetic activity compared with aspirin ([5]; writhing test, summary of Table 1): better analgetic activity than aspirin
- difference of peak plasma levels ([13]; pro-drug donor versus acetylsalicylic acid donor): approximately 100 times
- peak plasma level of salicylic acid ([13]; topical, 30% in 1 mL isopropanol on 1 cm^2 of the back, hairless mice): ~10 mg/mL
- peak plasma level times higher than the salicylate plasma level for effective analgesia ([13]; versus 0.15-0.3 mg/ml): 33-67 times
- peak plasma level times higher than the salicylate plasma level for effective anti-inflammatory activity ([13]; versus 0.2-0.3 mg/ml): 33-50 times
- pro-drug changed back to the drug itself [14]: 80%
- analgetic activity (prolongation time of pain threshold) ([15]; 200 mg/kg orally (C)): stronger analgetic activity
- analgetic activity (prolongation time of pain threshold) ([15]; 200 mg/kg transdermally (D)): stronger analgetic activity
- Anti-inflammatory activity (rate of swelling) compared with aspirin [16]: better Anti-inflammatory activity than that of aspirin
- solubility [1]: 300 mg/mL (≈ 1070 mM)
- average fecal blood [17]: none

Molecule: CC(=O)Oc1ccccc1C(=O)OCCN(C)C [dimethylaminoethyl acetylsalicylate.AcOH]
- solubility [18]: 350 mg/mL (≈ 1390 mM)
- LD50 orally in rats [19]: 2.2 g

Molecule: CCCN(CCC)CCOC(=O)c1ccccc1OC(C)=O [dipropylaminoethyl acetylsalicylate.AcOH]
- solubility [1]: 300 mg/mL (≈ 976 mM)

Molecule: CCOC(=O)c1ccccc1OC(C)=O [ethyl acetylsalicylate]
- Apparent flux values [8]: 1 mg/cm^2/h
- penetration rate difference between ethyl acetylsalicylate and acetylsalicylic acid [8]: 4 times

Molecule: O=C(O)c1ccccc1O [salicylic acid]
- peak plasma level of salicylic acid [6]: ~0.01 mg/mL

Molecule: S-diethylaminoethyl propionylthiosalicylate.AcOH
- Solubility in water [1]: 280 mg/mL

— patent publication EP2610242A1, “Positively charged water-soluble prodrugs of aspirin” (Techfields Biochem Co. Ltd, priority 2006, dated 2008)
